Test results taken from patent US20250230154A1, “COMPOUND HAVING SHP2 PROTEIN DEGRADING ACTIVITY, AND MEDICAL USES THEREOF” (UBIX THERAPEUTICS, INC., priority 2021, published 2025).

Target: T1, SHP2 protein (Homo sapiens, UniProt Q06124)
T1 sequence (Q06124 1-593): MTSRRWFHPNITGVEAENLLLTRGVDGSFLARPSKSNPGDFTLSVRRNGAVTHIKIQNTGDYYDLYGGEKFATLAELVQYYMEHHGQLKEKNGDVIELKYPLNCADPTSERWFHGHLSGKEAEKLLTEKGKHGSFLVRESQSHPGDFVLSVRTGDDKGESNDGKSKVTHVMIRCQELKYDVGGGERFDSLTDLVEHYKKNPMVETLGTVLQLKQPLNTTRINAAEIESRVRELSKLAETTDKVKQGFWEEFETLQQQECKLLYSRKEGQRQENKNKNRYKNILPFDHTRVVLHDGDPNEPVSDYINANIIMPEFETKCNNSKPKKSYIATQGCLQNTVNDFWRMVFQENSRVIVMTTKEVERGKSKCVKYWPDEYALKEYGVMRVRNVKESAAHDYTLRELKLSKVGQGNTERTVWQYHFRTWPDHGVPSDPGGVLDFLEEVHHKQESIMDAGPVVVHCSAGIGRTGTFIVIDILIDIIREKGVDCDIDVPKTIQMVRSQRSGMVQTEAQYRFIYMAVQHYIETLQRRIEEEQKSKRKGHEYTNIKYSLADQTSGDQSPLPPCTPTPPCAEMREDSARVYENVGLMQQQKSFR
Test: Measurement of SHP2 protein degradation in KYSE-520 cells (western blotting)
Format: cell-based
Design: endogenous in cells
Conditions: 24 hours
Procedure: Experimental Example 1: Measurement of SHP2 Protein Degradation in KYSE-520 Cells
KYSE-520 cells were treated with the synthesized Example compound, and the amount of SHP2 protein present in the cells was measured using western blotting detection. The protocol of the experiment conducted using KYSE-520 cells was as follows:
[Culture] KYSE-520 cells resuspended in RPMI1640 MEDIUM (Hyclone, SH30027.01) containing 5% FBS (Hyclone, SV30207.02) and 1% Penicillin-streptomycin (Welgene, LS 202-02) were seeded at a density of 2.5×10^5/well in a 6-well plate in an amount of 2 ml each and incubated for 2 days.
[Compound treatment] […] After 24 hours, cells were harvested. For the negative control group, DMSO diluted 1/10 to the media (3 mL DMSO+27 mL media) was added.
[Cell Lysis and Protein Quantification] Lysis buffer was prepared as follows: […] of RIPA buffer (Biosesang, RC2038-050-00)+0.5 mM PMSF (SIGMA, P7626)+1× Protease/Phosphatase Inhibitor (Cell signaling, 5872S) per well was added and placed on ice for 30 minutes (vortexing at 0 and 30 minutes, respectively). After sonication process (10 seconds pulse, 30 seconds rest, 5 cycles, 70% amplification), centrifugation (15000 g, 15 min, 4° C.) was performed, and then only the supernatant was taken and transferred to a new microtube. The sample was diluted ¼ with RIPA buffer in a 96-well plate, and mixed with A:B=50:1 of the BCA Protein Assay Kit (iNtRON, 21071). […] each of the mixture was left at 37° C. for 30 minutes, and cooled for 10 minutes. Then, absorbance was measured at 562 nm with the SYNERGY H1 microplate reader from BioTek. After making a sample by quantifying the protein with the measured value, boiling was performed at 70° C. for 10 minutes. At this time, the sample buffer used was a mixture of NuPAGE or Bolt 4× sample buffer (Invitrogen) and each 10× sample reducing agent according to the gel to be used, and RIPA buffer was used for protein dilution.
[Western blotting detection method] The same amount of sample was loaded on NuPAGE or Bolt Bis-tris 4-12% gradient gel and run (200 V, 35 minutes). It was transferred to 0.2 mm NC membrane with Trans-blot Turbo (BIO-RAD) (1.3 A constant, 25 V limit, 15 minutes). Blocking was performed at room temperature for 1 hour with Skim milk or Intercept Blocking Buffer (LI-COR, 927-60001):0.1% TBST=1:1. Anti SHPTP2 Mouse (1:500 in 5% Skim milk/TBST, size: 70 kDa, Santacruz sc-7384) was incubated overnight at 4° C., and Anti GAPDH Rabbit (1:2,000 in 5% BSA/0.2% TBST, size: 37 kDa, CST #2118) was incubated at room temperature for 1 hour 30 minutes or 3 hours. It was washed 3 times for 5 minutes each with 0.2% TBST washing buffer. Secondary antibody Anti-Rabbit IgG (1:5,000 in 5% Skim milk/0.2% TBST, CST), and IRDye® 680RD Goat anti-Rabbit IgG Secondary Antibody (1:10,000 in 5% BSA/0.2% TBST, LI-COR 926-68071) were incubated for 45 minutes on a rocker at room temperature. It was washed 5 times for 5 minutes each with 0.2% TBST washing buffer and detected with LI-COR's Odyssey. At this time, SHPTP2 was detected using SuperSignal West Pico PLUS Chemiluminescent Substrate, and house-keeping genes were also detected.
In the results of Table 4 below, Compounds 1-7, 13-19, and 21-26 are results in KYSE-520 cells, and the others are results in MV-4-11 cells.

| SMILES | SHP2 degradation (%) 10 nM | SHP2 degradation (%) 100 nM | SHP2 degradation (%) 1000 nM |
| --- | --- | --- | --- |
| Cc1ncsc1-c1ccc(CNC(=O)[C@@H]2C[C@@H](O)CN2C(=O)[C@@H](NC(=O)C2(F)CC2)C(C)(C)C)c(OCCN2CCC(CCCC(=O)Nc3cccc(Sc4cnc(N5CCC(C)(CN)CC5)cn4)c3Cl)CC2)c1 [Example 16, (2S,4R)—N-(2-(2-(4-(4-((3-((5-(4-(aminomethyl)-4-methylpiperidin-1-yl)pyrazin-2-yl)thio)-2-chlorophenyl)amino)-4-oxobutyl)piperidin-1-yl)ethoxy)-4-(4-methylthiazol-5-yl)benzyl)-1-((S)-2-(1-fluorocyclopropane-1-carboxamido)-3,3-dimethylbutanoyl)-4-hydroxypyrrolidine-2-carboxamide] | −24.3% | 45.1% | 84.0% |
| Cc1ncsc1-c1ccc(CNC(=O)[C@@H]2C[C@@H](O)CN2C(=O)[C@@H](NC(=O)C2(F)CC2)C(C)(C)C)c(OCCCCN2CCC(CC(=O)Nc3cccc(Sc4cnc(N5CCC(C)(CN)CC5)cn4)c3Cl)CC2)c1 [Example 7, (2S,4R)—N-(2-(4-(4-(2-((3-((5-(4-(aminomethyl)-4-methylpiperidin-1-yl)pyrazin-2-yl)thio)-2-chlorophenyl)amino)-2-oxoethyl)piperidin-1-yl)butoxy)-4-(4-methylthiazol-5-yl)benzyl)-1-((S)-2-(1-fluorocyclopropane-1-carboxamido)-3,3-dimethylbutanoyl)-4-hydroxypyrrolidine-2-carboxamide] | 25.4% | 75.2% | 93.8% |
| Cc1ncsc1-c1ccc(CNC(=O)[C@@H]2C[C@@H](O)CN2C(=O)[C@@H](NC(=O)C2(F)CC2)C(C)(C)C)c(OCCCCCCN2CCC(CCCC(=O)Nc3cccc(Sc4cnc(N5CCC(C)(CN)CC5)cn4)c3Cl)CC2)c1 [Example 18, (2S,4R)—N-(2-((6-(4-(4-((3-((5-(4-(aminomethyl)-4-methylpiperidin-1-yl)pyrazin-2-yl)thio)-2-chlorophenyl)amino)-4-oxobutyl)piperidin-1-yl)hexyl)oxy)-4-(4-methylthiazol-5-yl)benzyl)-1-((S)-2-(1-fluorocyclopropane-1-carboxamido)-3,3-dimethylbutanoyl)-4-hydroxypyrrolidine-2-carboxamide] | −9.0% | 56.9% | 91.8% |
| Cc1ncsc1-c1ccc(CNC(=O)[C@@H]2C[C@@H](O)CN2C(=O)[C@@H](NC(=O)C2(F)CC2)C(C)(C)C)c(OCCCN2CCC(CC(=O)Nc3cccc(Sc4cnc(N5CCC(C)(CN)CC5)cn4)c3Cl)CC2)c1 [Example 6, (2S,4R)—N-(2-(3-(4-(2-((3-((5-(4-(aminomethyl)-4-methylpiperidin-1-yl)pyrazin-2-yl)thio)-2-chlorophenyl)amino)-2-oxoethyl)piperidin-1-yl)propoxy)-4-(4-methylthiazol-5-yl)benzyl)-1-((S)-2-(1-fluorocyclopropane-1-carboxamido)-3,3-dimethylbutanoyl)-4-hydroxypyrrolidine-2-carboxamide] | 19.5% | 82.4% | 95.0% |
| Cc1ncsc1-c1ccc(CNC(=O)[C@@H]2C[C@@H](O)CN2C(=O)[C@@H](NC(=O)C2(F)CC2)C(C)(C)C)c(OCCCC(=O)N2CCC(CCCC(=O)Nc3cccc(Sc4cnc(N5CCC(C)(CN)CC5)cn4)c3Cl)CC2)c1 [Example 25, (2S,4R)—N-(2-(4-(4-(4-((3-((5-(4-(aminomethyl)-4-methylpiperidin-1-yl)pyrazin-2-yl)thio)-2-chlorophenyl)amino)-4-oxobutyl)piperidin-1-yl)-4-oxobutoxy)-4-(4-methylthiazol-5-yl)benzyl)-1-((S)-2-(1-fluorocyclopropane-1-carboxamido)-3,3-dimethylbutanoyl)-4-hydroxypyrrolidine-2-carboxamide] |  | 61.8% | 94.7% |
| Cc1ncsc1-c1ccc(CNC(=O)[C@@H]2C[C@@H](O)CN2C(=O)[C@@H](NC(=O)C2(F)CC2)C(C)(C)C)c(OCCCN2CCC(CCC(=O)Nc3cccc(Sc4cnc(N5CCC(C)(CN)CC5)cn4)c3Cl)CC2)c1 [Example 14, (2S,4R)—N-(2-(3-(4-(3-((3-((5-(4-(aminomethyl)-4-methylpiperidin-1-yl)pyrazin-2-yl)thio)-2-chlorophenyl)amino)-3-oxopropyl)piperidin-1-yl)propoxy)-4-(4-methylthiazol-5-yl)benzyl)-1-((S)-2-(1-fluorocyclopropane-1-carboxamido)-3,3-dimethylbutanoyl)-4-hydroxypyrrolidine-2-carboxamide] | 14.2% | 60.1% | 69.1% |
| Cc1ncsc1-c1ccc(CNC(=O)[C@@H]2C[C@@H](O)CN2C(=O)[C@@H](NC(=O)C2(F)CC2)C(C)(C)C)c(OCCCCN2CCC(CCC(=O)Nc3cccc(Sc4cnc(N5CCC(C)(CN)CC5)cn4)c3Cl)CC2)c1 [Example 15, (2S,4R)—N-(2-(4-(4-(3-((3-((5-(4-(aminomethyl)-4-methylpiperidin-1-yl)pyrazin-2-yl)thio)-2-chlorophenyl)amino)-3-oxopropyl)piperidin-1-yl)butoxy)-4-(4-methylthiazol-5-yl)benzyl)-1-((S)-2-(1-fluorocyclopropane-1-carboxamido)-3,3-dimethylbutanoyl)-4-hydroxypyrrolidine-2-carboxamide] | 21.7% | 58.3% | 74.6% |
| Cc1ncsc1-c1ccc(CNC(=O)[C@@H]2C[C@@H](O)CN2C(=O)[C@@H](NC(=O)C2(F)CC2)C(C)(C)C)c(OCCCCCCN2CCC(C(=O)Nc3cccc(Sc4cnc(N5CCC(C)(CN)CC5)cn4)c3Cl)CC2)c1 [Example 3, N-(3-((5-(4-(aminomethyl)-4-methylpiperidin-1-yl)pyrazin-2-yl)thio)-2-chlorophenyl)-1-(6-(2-(((2S,4R)-1-((S)-2-(1-fluorocyclopropane-1-carboxamido)-3,3-dimethylbutanoyl)-4-hydroxypyrrolidine-2-carboxamido)methyl)-5-(4-methylthiazol-5-yl)phenoxy)hexyl)piperidine-4-carboxamide] | −15.6% | 48.8% | 84.0% |
